Each structure is given as a SMILES string. Where a name gives a salt, the structure may show the parent alone. Bounds are passed on as bounds.

This experiment deals with T1, human SPNS2 (Homo sapiens, UniProt Q8IVW8).
T1 construct: expressed in transfected cells; host or cells: Saccharomyces cerevisiae strain with forced expression of a mammalian SphK and human SPNS2
T1 sequence (Q8IVW8 1-549): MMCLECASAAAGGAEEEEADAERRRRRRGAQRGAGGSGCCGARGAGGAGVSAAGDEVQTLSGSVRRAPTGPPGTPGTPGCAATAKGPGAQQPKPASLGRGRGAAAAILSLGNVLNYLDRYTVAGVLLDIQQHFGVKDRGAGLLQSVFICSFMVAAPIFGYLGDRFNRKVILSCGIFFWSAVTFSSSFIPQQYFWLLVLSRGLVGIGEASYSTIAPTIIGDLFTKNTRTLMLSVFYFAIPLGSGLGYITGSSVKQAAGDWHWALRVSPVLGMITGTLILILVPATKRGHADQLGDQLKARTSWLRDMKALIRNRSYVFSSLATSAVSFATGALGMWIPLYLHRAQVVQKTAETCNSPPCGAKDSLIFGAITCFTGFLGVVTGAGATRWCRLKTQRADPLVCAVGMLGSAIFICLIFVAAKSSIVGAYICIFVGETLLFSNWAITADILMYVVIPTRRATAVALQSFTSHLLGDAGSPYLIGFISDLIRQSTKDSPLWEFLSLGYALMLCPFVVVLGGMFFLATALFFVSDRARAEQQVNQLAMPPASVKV
Briefly: S1P transporter assay: growth of S. cerevisiae strain with forced expression of a mammalian SphK and human SPNS2. Particulars: in vitro inhibition of SPNS2; growth of S. cerevisiae strain expressing mammalian SphK and human SPNS2; compounds as their pharmaceutical salts. In kind it is cell-based. An excerpt:
Transporter assays are vectorial and, therefore, require measurement of the transported analyte in different compartments. The assay of S1P transporters is problematic because S1P is exported, but not imported, by SPNS2, which obviates measuring uptake of mass- or radio-labeled S1P into transporter-expressing cells.
To assay for SPNS2 inhibitor hits, we took advantage of the growth inhibitory effects of excessive levels of phosphorylated Long Chain Base (phospho-LCB) levels on the budding yeast, S. cerevisiae (Kharel Y, et al. Saccharomyces cerevisiae as a platform for assessing sphingolipid lipid kinase inhibitors. PLoS One 13, e0192179 (2018) PMC5908134). Yeast lack the desaturase that converts dihydroceramide to ceramide and, therefore, have neither sphingosine nor S1P. Rather, yeast have the reduced form, dihydrosphingosine, and the 4-hydroxyl analog, phytosphingosine and their respective phosphates. Like all eukaryotes, the yeast synthesizes (via LCB kinases (SphKs)) and degrades (via phospho-LCB lyase and phosphatase) phospho-LCBs, (dhS1P, phytoS1P). Yeast lack phospho-LCB transporters such as SPNS2, which are found only in vertebrates. To assess inhibition of SPNS2 in vitro, we used a strain of S. cerevisiae wherein expression of a mammalian SphK and human SPNS2 were forced. SPNS2 inhibitors decrease the growth of this strain. Table 2 below presents in vitro inhibition data against SPNS2 for exemplary compounds, presented here as their pharmaceutical salts, of the disclosure (A≤2 μM, B>2 μM).
A word on the IC50: it is the concentration that gives 50% inhibition. In the case of `CCCCCCCCCCCc1ccc(-c2noc(C3CNC3)n2)cc1` [Compound 5a, 5-(azetidin-3-yl)-3-(4-undecylphenyl)-1,2,4-oxadiazole 2,2,2-trifluoroacetate], the IC50 is more than 2000 nM.

Take `CCCCCCCOc1ccc2cc(-c3noc([C@@H]4CCNC4)n3)ccc2c1` [Compound 5aa, (R)-3-(6-(heptyloxy)naphthalen-2-yl)-5-(pyrrolidin-3-yl)-1,2,4-oxadiazole hydrochloride]: the concentration for half-maximal inhibition (IC50) is not above 2000 nM.

With `CCCCCCCCCCc1ccc(-c2noc([C@H]3CCNC3)n2)cc1` [Compound 5e, (S)-3-(3-(4-decylphenyl)-1,2,4-oxadiazol-5-yl)pyrrolidin-1-ium 2,2,2-trifluoroacetate], the IC50 was more than 2000 nM.

As to `CCCCCCCCCCc1ccc(-c2noc([C@H]3CCCNC3)n2)cc1` [Compound 5f, (S)-3-(3-(4-decylphenyl)-1,2,4-oxadiazol-5-yl)piperidin-1-ium 2,2,2-trifluoroacetate], the half-maximal inhibitory concentration (IC50) is more than 2000 nM.

`CCCCCCCCCCc1ccc(-c2noc([C@@H]3CCNC3)n2)cc1` [Compound 5g, (R)-3-(3-(4-decylphenyl)-1,2,4-oxadiazol-5-yl)pyrrolidin-1-ium 2,2,2-trifluoroacetate]: the IC50 is more than 2000 nM.

Turning to `CCCCCCCCCCc1ccc(-c2noc([C@@H]3CCCNC3)n2)cc1` [Compound 5h, (R)-3-(3-(4-decylphenyl)-1,2,4-oxadiazol-5-yl)piperidin-1-ium 2,2,2-trifluoroacetate], the IC50 was more than 2000 nM.

As for `CCCCCCCCCCc1ccc(-c2noc(CC3CNC3)n2)cc1` [Compound 5j, 5-(azetidin-3-ylmethyl)-3-(4-decylphenyl)-1,2,4-oxadiazole 2,2,2-trifluoroacetate], the concentration for half-maximal inhibition (IC50) was not above 2000 nM.

On to `CCCCCCCCCCc1ccc(-c2noc(C[C@H]3CCNC3)n2)cc1` [Compound 5l, (R)-3-(4-decylphenyl)-5-(pyrrolidin-3-ylmethyl)-1,2,4-oxadiazole 2,2,2-trifluoroacetate], for which the IC50 is not above 2000 nM.

On to `CCCCCCCCCCc1ccc(-c2noc(C[C@@H]3CCNC3)n2)cc1` [Compound 5p, (S)-3-(4-decylphenyl)-5-(pyrrolidin-3-ylmethyl)-1,2,4-oxadiazole 2,2,2-trifluoroacetate], for which the half-maximal inhibitory concentration (IC50) was not above 2000 nM.

For the compound `CCCCCCCCCCc1ccc(-c2noc(C[C@@H]3CCCNC3)n2)cc1` [Compound 5q, (S)-3-(4-decylphenyl)-5-(piperidin-3-ylmethyl)-1,2,4-oxadiazole 2,2,2-trifluoroacetate], the concentration for half-maximal inhibition (IC50) is not above 2000 nM.

`CCCCCCCCCCCc1ccc(-c2noc(C3CN(C(=N)N)C3)n2)cc1` [Compound 7a, 3-(3-(4-undecylphenyl)-1,2,4-oxadiazol-5-yl)azetidine-1-carboximidamide hydrochloride]: the 50% inhibitory concentration (IC50) was more than 2000 nM.

Take `CCCCCCCCCCc1ccc(-c2noc(C3CN(C(=N)N)C3)n2)cc1` [Compound 7b, 3-(3-(4-decylphenyl)-1,2,4-oxadiazol-5-yl)azetidine-1-carboximidamide hydrochloride]: the IC50 is not above 2000 nM.

Take `CCCCCCCCCc1ccc(-c2noc(C3CN(C(=N)N)C3)n2)cc1` [Compound 7c, 3-(3-(4-nonylphenyl)-1,2,4-oxadiazol-5-yl)azetidine-1-carboximidamide hydrochloride]: the concentration for half-maximal inhibition (IC50) was not above 2000 nM.

Turning to `CCCCCCCCc1ccc(-c2noc(C3CN(C(=N)N)C3)n2)cc1` [Compound 7d, 3-(3-(4-octylphenyl)-1,2,4-oxadiazol-5-yl)azetidine-1-carboximidamide hydrochloride], the IC50 is more than 2000 nM.

Consider `CCCCCCCCCCc1ccc(-c2noc([C@H]3CCN(C(=N)N)C3)n2)cc1` [Compound 7e, (S)-amino(3-(3-(4-decylphenyl)-1,2,4-oxadiazol-5-yl)pyrrolidin-1-yl)methaniminium chloride], for which the IC50 is more than 2000 nM.

With `CCCCCCCCCCc1ccc(-c2noc([C@H]3CCCN(C(=N)N)C3)n2)cc1` [Compound 7f, (S)-amino(3-(3-(4-decylphenyl)-1,2,4-oxadiazol-5-yl)piperidin-1-yl)methaniminium chloride], the IC50 is not above 2000 nM.

Regarding `CCCCCCCCCCc1ccc(-c2noc([C@@H]3CCN(C(=N)N)C3)n2)cc1` [Compound 7g, (R)-amino(3-(3-(4-decylphenyl)-1,2,4-oxadiazol-5-yl)pyrrolidin-1-yl)methaniminium chloride], the half-inhibitory concentration (IC50) was more than 2000 nM.

In the case of `CCCCCCCCCCc1ccc(-c2noc([C@@H]3CCCN(C(=N)N)C3)n2)cc1` [Compound 7h, (R)-amino(3-(3-(4-decylphenyl)-1,2,4-oxadiazol-5-yl)piperidin-1-yl)methaniminium chloride], the 50% inhibitory concentration (IC50) is more than 2000 nM.

For the compound `CCCCCCCCCCc1ccc(-c2noc(CC3CN(C(=N)N)C3)n2)cc1` [Compound 7i], the IC50 is not above 2000 nM.

Consider `CCCCCCCOc1ccc2cc(-c3noc([C@@H]4CCN(C(=N)N)C4)n3)ccc2c1` [Compound 7kk, (R)-3-(3-(6-(heptyloxy)naphthalen-2-yl)-1,2,4-oxadiazol-5-yl)pyrrolidine-1-carboximidamide hydrochloride], for which the IC50 was not above 2000 nM.

As for `CCCCCCCCCCc1ccc(-c2noc(C[C@@H]3CCN(C(=N)N)C3)n2)cc1` [Compound 7p, (S)-3-((3-(4-decylphenyl)-1,2,4-oxadiazol-5-yl)methyl)pyrrolidine-1-carboximidamide 2,2,2-trifluoroacetate], the IC50 is not above 2000 nM.

For the compound `CCCCCCCCCCc1ccc(-c2noc(C[C@@H]3CCCN(C(=N)N)C3)n2)cc1` [Compound 7q, (S)-3-((3-(4-decylphenyl)-1,2,4-oxadiazol-5-yl)methyl)piperidine-1-carboximidamide 2,2,2-trifluoroacetate], the 50% inhibitory concentration (IC50) is not above 2000 nM.

As for `CCCCCCCCCCc1cccc(-c2noc([C@@H]3CCN(C(=N)N)C3)n2)c1` [Compound 7t, (R)-3-(3-(3-decylphenyl)-1,2,4-oxadiazol-5-yl)pyrrolidine-1-carboximidamide hydrochloride], the IC50 is more than 2000 nM.

Consider `CCCCCCCCCCCc1ccc(-c2noc([C@@H]3CCN(C(=N)N)C3)n2)cc1` [Compound 7xa, (R)-3-(3-(4-undecylphenyl)-1,2,4-oxadiazol-5-yl)pyrrolidine-1-carboximidamide hydrochloride], for which the IC50 was not above 2000 nM.

`CCCCCCCCCc1ccc(-c2noc([C@@H]3CCN(C(=N)N)C3)n2)cc1` [Compound 7xb, (R)-3-(3-(4-nonylphenyl)-1,2,4-oxadiazol-5-yl)pyrrolidine-1-carboximidamide hydrochloride]: the IC50 is not above 2000 nM.

On to `CCCCCCCCCCCc1ccc(-c2noc([C@@H]3CCCN(C(=N)N)C3)n2)cc1` [Compound 7ya, (R)-3-(3-(4-undecylphenyl)-1,2,4-oxadiazol-5-yl)piperidine-1-carboximidamide hydrochloride], for which the 50% inhibitory concentration (IC50) was not above 2000 nM.

On to `CCCCCCCCCc1ccc(-c2noc([C@@H]3CCCN(C(=N)N)C3)n2)cc1` [Compound 7yb, (R)-3-(3-(4-nonylphenyl)-1,2,4-oxadiazol-5-yl)piperidine-1-carboximidamide hydrochloride], for which the 50% inhibitory concentration (IC50) was not above 2000 nM.

With `CCCCCCCCCOc1ccc(-c2noc([C@@H]3CCCNC3)n2)cc1C(F)(F)F` [Compound 12e], the half-maximal inhibitory concentration (IC50) is not above 2000 nM.

Take `c1cc(N2CCCCC2)ncc1-c1noc([C@@H]2CCNC2)n1` [Compound 13a, (R)-3-(6-(piperidin-1-yl)pyridin-3-yl)-5-(pyrrolidin-3-yl)-1,2,4-oxadiazole hydrochloride]: the concentration for half-maximal inhibition (IC50) is more than 2000 nM.

On to `CCCCCCCCNc1ccc(-c2noc([C@@H]3CCNC3)n2)cn1` [Compound 13b, (R)—N-octyl-5-(5-(pyrrolidin-3-yl)-1,2,4-oxadiazol-3-yl)pyridin-2-amine hydrochloride], for which the IC50 is more than 2000 nM.

For the compound `Fc1cc(Nc2ccc(-c3noc([C@@H]4CCCNC4)n3)cn2)ccc1OC(F)(F)F` [Compound 13c, (R)—N-(3-fluoro-4-(trifluoromethoxy)phenyl)-5-(5-(piperidin-3-yl)-1,2,4-oxadiazol-3-yl)pyridin-2-amine hydrochloride], the 50% inhibitory concentration (IC50) was more than 2000 nM.

As to `c1cc(N2CCOCC2)ncc1-c1noc([C@@H]2CCNC2)n1` [Compound 13d, (R)-4-(5-(5-(pyrrolidin-3-yl)-1,2,4-oxadiazol-3-yl)pyridin-2-yl)morpholine hydrochloride], the half-inhibitory concentration (IC50) was more than 2000 nM.

Source of the values: patent publication US12590083B2, “Inhibitors of spinster homolog 2 (SPNS2) for use in therapy” (University of Virginia Patent Foundation, priority 2019, dated 2026).
